# Patent US20120263739A1, “ANTI INTEGRIN ANTIBODIES LINKED TO NANOPARTICLES LOADED WITH CHEMOTHERAPEUTIC AGENTS” (MERCK PATENT GMBH, priority 2009, published 2012)
# What was measured:
# M21 cells = assay: Cellular uptake and intracellular distribution, confocal laser scanning microscopy; assay type: cell-based; details: 10 ng/μl, 4 h at 37° C., CLSM
# Procedure: Cellular uptake and intracellular distribution: The cellular uptake and intracellular distribution of these nanoparticulate formulations are shown by confocal laser scanning microscopy (CLSM). αvβ3 integrin-positive M21 melanoma cells are incubated with NP-Dox-DI17E6, with NP-Dox-IgG, or free Doxorubicin (FIG. 5). […] The overlay of the different fluorescence channels (FIG. 6B-D) verifies the intracellular uptake of NP-Dox-DI17E6 (FIG. 6A).
# FIG. 5: Cellular uptake and intracellular distribution of nanoparticles studied by confocal laser scanning microscopy (CLSM). M21 cells were cultured on glass slides and treated with 10 ng/μl of the different nanoparticle formulations (referred to DI17E6 concentration or equivalent amount of control nanoparticles) for 4 h at 37° C. The green autofluorescence of the nanoparticles was used for detection and the red autofluorescence of doxorubicin. The cell membranes were stained with Concanavalin A AlexaFluor 350 (blue). Pictures were taken within inner sections of the cells. […]
# Cellular uptake and intracellular distribution of the nanoparticles were studied by confocal laser scanning microscopy. […] (concentrations are calculated referred to DI17E6 or equivalent NP amounts as described in 2.5). […] Nanoparticles were detected at 488/520 nm. Doxorubicin was detected by red fluorescence at 488/590 nm.
# αv-negative M21L cells = assay: MTT cell viability assay; details: for IC-50 M21L: MTT, reduce cell viability by 50%, M21L cells
# Procedure: (§5) Cell viability was assessed using the 3-(4,5-dimethylthiazol-2-yl)-2,5-diphenyltetrazolium bromide (MTT) dye reduction assay [27] modified as described before [28].
# [1] = test system: αvβ3-positive M21 melanoma cells; assay: MTT cell viability assay; details: for IC-50 M21: MTT, reduce cell viability by 50%, M21 cells
# Procedure: as §5
# [2] = test system: αvβ3 positive melanoma cells M21 on vitronectin; assay: Kinetic of cell detachment, transmitted light time lapse microscopy; assay type: cell-based; details: total incubation time 1-2 d
# Procedure: A parallel detachment kinetic study of the different nanoparticulate formulations or free doxorubicin confirms the cell detachment assay. In this study detachment is observed by transmitted light time lapse microscopy over a period of 1-2 d. Pictures were done every 7 minutes. The detachment time of the cells is measured.
# For the determination of cell detachment kinetics, cells were seeded in a vitronectin coated multiwell chamber and incubated with the different nanoparticulate formulations or free doxorubicin in a humidified, CO2-aerated climate chamber at 37° C. Detachment was observed by transmitted light time lapse microscopy over a period of 1-2 d. Pictures were done every 7 minutes. The detachment of the cells was analyzed by manual evaluation of the data.
# [3] = Zetapotential by Laser Doppler microelectrophoresis; assay type: physicochemical; details: mean ± SD; n = 3; 100% crosslinking
# Procedure: (§1) Nanoparticles were analyzed with regard to particle diameter and polydispersity by photon correlation spectroscopy (PCS) using a Malvern Zetasizer 3000HSA (Malvern Instruments Ltd., Malvern, UK). The zetapotential was measured with the same instrument by Laser Doppler microelectrophoresis. Prior to both measurements the samples were diluted with filtered (0.22 μm) purified water. Particle content was determined by microgravimetry. For this purpose 50.0 μl of the nanoparticle suspension was pipetted into an aluminium weighing dish and dried for 2 h at 80° C. After 30 min of storage in an exsiccator the samples were weighed on a micro balance (Sartorius, Germany).
# [4] = test system: αvβ3 integrin positive melanoma cells M21; assay: Cellular binding of nanoparticulate formulations, flow cytometry (FACS); assay type: cell-based; details: 2 ng/μl, 4 h at 37° C.
# Procedure: (§2) Cellular binding: αvβ3 integrin-positive melanoma cells M21 and αv-negative melanoma cells M21L are incubated with DI17E6-coupled nanoparticles (NP-DI17E6) or nanoparticles coupled to an unspecific control mAb IgG (NP-IgG). […] Both nanoparticle preparations show low binding to M21L cells (FIG. 4D).
# (§3) FIG. 4: Cellular binding of unloaded and doxorubicin loaded nanoparticulate formulations. αvβ3 integrin positive melanoma cells M21 (A and C) and αv-defective melanoma cells M21L (B and D) were treated with 2 ng/μl of the different unloaded (A and B) or doxorubicin loaded (C and D) nanoparticulate formulations for 4 h at 37° C. (concentrations are calculated referred to DI17E6 or equivalent NP amounts). Flow cytometry (FACS) analysis was performed to quantify their cellular binding. The data is shown as histogram of the FL1-H-channel (autofluorescence of the nanoparticles). Green: NP-DI17E6 and NP-Dox-DI17E6 respectively, red: NP-IgG and NP-Dox-IgG respectively, blue: untreated control. […]
# (§4) M21 or M21L cells were cultured in 24-well plates (Greiner, Frickenhausen, Germany) and treated with the different nanoparticle formulations for 4 h at 37° C. […] Control nanoparticles without DI17E6 modification were used in equivalent nanoparticle quantities. […] Nanoparticles could be detected at 488/520 nm.
# [5] = test system: αv-defective melanoma cells M21L; assay: as above; assay type: cell-based; details: 2 ng/μl, 4 h at 37° C.
# Procedure: as §2, §3, §4
# [6] = Particle diameter and polydispersity by photon correlation spectroscopy; assay type: physicochemical; details: mean ± SD; n = 3; 100% crosslinking
# Procedure: as §1
# [7] = test system: αvβ3 integrin positive melanoma cells M21; assay: Cell detachment from vitronectin coated surface; assay type: cell-based; details: 4 ng/μl, 4 h at 37° C.
# Procedure: FIG. 9: Cell detachment from vitronectin coated surface. For cell detachment assay, 96-well ELISA plates were coated with vitronectin and cells were allowed to attach and spread for 1 h. Then, 4 ng/μl of free DI17E6 or the different unloaded or doxorubicin nanoparticulate formulations were added and the plates were incubated for additional 4 h at 37° C. to induce detachment (concentrations are calculated referred to DI17E6 or equivalent NP amounts). Detached cells were removed and remaining attached cells were stained with CyQUANT GR and counted against untreated control as described in the manufacturer's instructions manual. (Internal control of each experiment n=10, one representative experiment out of 9 independent experiments is shown.)
# For cell detachment assays, 96-well ELISA plates were coated with vitronectin as described above. After blocking, cells were allowed to attach and spread for 1 h in cell adhesion medium. Then, 4 ng/μl or 10 ng/μl of either free DI17E6 or the different nanoparticulate formulations (referred to free mAb) were added and the plates were incubated for additional 4 h at 37° C. to induce detachment. Subsequently, plates were washed and processed as for cell adhesion assay. Specific inhibition of attachment or induction of detachment were determined relative to vitronectin-coated surfaces blocked with BSA.
# [8] = Particle content by microgravimetry; assay type: physicochemical; details: mean ± SD; n = 3; 100% crosslinking
# Procedure: as §1
# [9] = Doxorubicin loading (HPLC of non-entrapped drug); assay type: physicochemical; details: mean ± SD, n = 3
# Procedure: (5) Preparation of doxorubicin-loaded nanoparticles 160 mg HSA were dissolved in 4 ml purified water and the solution was filtered through a 0.22 μm cellulose acetate membrane filter (Schleicher & Schuell, Dassel, Germany). An aliquot (500 μl) of this solution was added to 200 μl of a 0.5% (w/v) aqueous stock solution of doxorubicin. To this mixture, 300 μl of purified water were added. In order to adsorb doxorubicin to human serum albumin in solution, the mixture was incubated under stirring (550 rpm) for 2 h at room temperature. For the preparation of nanoparticles by desolvation, 3 ml ethanol (96%, v/v) were added continuously (1 ml/min) with a tubing pump (Ismatec IPN, Glattbrugg, Switzerland). After protein desolvation, an aliquot of 11.75 μl 8% glutaraldehyde solution was added to induce particle crosslinking (corresponding to 100% stoichiometric protein crosslinking). […] The nanoparticle content was determined by gravimetry. […] The content of entrapped doxorubicin was calculated from the difference between total doxorubicin and unbound drug. For the quantification of doxorubicin, a Merck Hitachi D7000 HPLC system equipped with a LiChroCART® 250-4 LiChrospher®-100 RP-18 column (Merck, Darmstadt, Germany) was used. […] Doxorubicin was quantified by UV (250 nm) and fluorescence detection (excitation 560 nm, emission 650 nm).
# [10] = Antibody bound to nanoparticle surface (SEC of supernatant); assay type: physicochemical
# Procedure: For the thiolation step of the antibodies, DI17E6 or IgG were dissolved in phosphate buffer pH 8.0 at a concentration of 1.0 mg/ml. For the introduction of thiol groups DI17E6 or IgG, respectively, were incubated with a 50 fold molar excess of 2-iminothiolane solution (c=1.14 mg/ml; 40.2 μl) for 2 h as previously described by Steinhauser et al. (2006). The antibodies were purified by size exclusion chromatography (SEC, D-Salt™ Dextran Desalting column). The resulting solutions contained thiolated antibody (DI17E6 or IgG, respectively) at a concentration of about 500 μg/ml. For the coupling reaction 1.0 ml of the sulfhydryl-reactive nanoparticle suspension was incubated with 1.0 ml of the thiolated DI17E6 or IgG, respectively, to achieve a covalent linkage between antibody and the nanoparticle system. For the preparation of samples with adsorptively attached antibody, 1.0 ml of the mPEG5000-SPA modified nanoparticles were incubated with 1.0 ml of thiolated DI17E6 or IgG, respectively. […] To determine unbound antibody the resulting supernatants were collected and analyzed by size exclusion chromatography (SEC) as described above. The amount of antibody bound to the nanoparticle surface was calculated as difference between the amount of antibody obtained after thiolation and purification and the amount of antibody determined in the supernatant obtained after the conjugation step.
# [11] = molecular target: alpha-v beta-3 integrin on M21 melanoma cells (UniProt P06756); assay: cell-based or functional assay
# [12] = test system: αvβ3 integrin positive melanoma cells M21; assay: Cell attachment on vitronectin coated surface; assay type: cell-based; details: 2 ng/μl, 1 h
# Procedure: FIG. 8: Cell attachment on vitronectin coated surface. 2 ng/μl of free DI17E6 or the different nanoparticulate formulations were incubated together with the αvβ3 integrin positive melanoma cells M21 on vitronectin coated ELISA plates (concentrations are calculated referred to DI17E6 or equivalent NP amounts). After 1 h of incubation non-adherent cells were removed. Remaining attached cells were stained with CyQUANT GR and counted against untreated control as described in the manufacturer's instructions manual. (Internal control of each experiment n=10, one representative experiment out of 3 independent experiments is shown.)
# αvβ3 integrin positive melanoma cells M21 were grown on vitronectin (MoBiTec, Göttingen, Germany) coated ELISA plates (Nunc, Wiesbaden, Germany). Therefore, ELISA 96-well plates were coated with 1 μg/ml vitronectin for 1 h at 37° C. Plates were blocked with 1% heat inactivated BSA (PAA, Cölbe, Germany) and incubated with either 2 ng/μl of free DI17E6 or the different nanoparticulate formulations (referred to free mAb) together with the cells in cell adhesion medium (RPMI 1640 with 2 mM L-glutamine supplemented with 1% BSA). […] Remaining attached cells were stained with CyQUANT GR (Invitrogen, Karlsruhe) and counted against untreated control in a microtiter ELISA reader as described in the manufacturer instructions manual.
# alpha-v beta-3 integrin on M21 melanoma cells, sequence (P06756 31-1048, chain 1 of 2): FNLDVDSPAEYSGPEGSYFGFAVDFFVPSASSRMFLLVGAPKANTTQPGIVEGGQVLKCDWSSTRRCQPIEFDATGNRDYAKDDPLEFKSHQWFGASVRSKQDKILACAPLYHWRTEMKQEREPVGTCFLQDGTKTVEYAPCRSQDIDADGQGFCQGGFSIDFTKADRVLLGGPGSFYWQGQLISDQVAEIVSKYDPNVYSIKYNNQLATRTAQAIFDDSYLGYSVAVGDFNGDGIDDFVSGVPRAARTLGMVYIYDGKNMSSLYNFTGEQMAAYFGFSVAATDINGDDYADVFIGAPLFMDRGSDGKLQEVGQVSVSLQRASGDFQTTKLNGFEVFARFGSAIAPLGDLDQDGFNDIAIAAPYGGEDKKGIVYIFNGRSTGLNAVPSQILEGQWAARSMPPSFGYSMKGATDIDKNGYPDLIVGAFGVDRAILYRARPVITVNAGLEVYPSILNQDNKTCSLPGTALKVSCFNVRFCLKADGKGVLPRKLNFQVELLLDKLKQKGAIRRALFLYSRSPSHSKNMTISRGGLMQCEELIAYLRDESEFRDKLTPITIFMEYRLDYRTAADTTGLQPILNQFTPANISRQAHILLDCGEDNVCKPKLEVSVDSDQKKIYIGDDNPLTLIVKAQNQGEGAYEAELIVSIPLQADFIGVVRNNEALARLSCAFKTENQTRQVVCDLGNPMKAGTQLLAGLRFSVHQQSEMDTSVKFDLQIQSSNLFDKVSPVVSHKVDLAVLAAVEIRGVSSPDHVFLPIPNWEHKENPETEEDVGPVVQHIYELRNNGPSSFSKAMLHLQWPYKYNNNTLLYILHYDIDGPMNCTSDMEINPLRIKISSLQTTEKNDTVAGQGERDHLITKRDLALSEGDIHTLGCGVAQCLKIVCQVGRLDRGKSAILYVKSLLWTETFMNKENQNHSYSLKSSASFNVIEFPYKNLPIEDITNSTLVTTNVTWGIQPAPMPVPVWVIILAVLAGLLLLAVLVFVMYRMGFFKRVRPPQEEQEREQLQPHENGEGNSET
# alpha-v beta-3 integrin on M21 melanoma cells, sequence (P05106 27-788, chain 2 of 2, further chain): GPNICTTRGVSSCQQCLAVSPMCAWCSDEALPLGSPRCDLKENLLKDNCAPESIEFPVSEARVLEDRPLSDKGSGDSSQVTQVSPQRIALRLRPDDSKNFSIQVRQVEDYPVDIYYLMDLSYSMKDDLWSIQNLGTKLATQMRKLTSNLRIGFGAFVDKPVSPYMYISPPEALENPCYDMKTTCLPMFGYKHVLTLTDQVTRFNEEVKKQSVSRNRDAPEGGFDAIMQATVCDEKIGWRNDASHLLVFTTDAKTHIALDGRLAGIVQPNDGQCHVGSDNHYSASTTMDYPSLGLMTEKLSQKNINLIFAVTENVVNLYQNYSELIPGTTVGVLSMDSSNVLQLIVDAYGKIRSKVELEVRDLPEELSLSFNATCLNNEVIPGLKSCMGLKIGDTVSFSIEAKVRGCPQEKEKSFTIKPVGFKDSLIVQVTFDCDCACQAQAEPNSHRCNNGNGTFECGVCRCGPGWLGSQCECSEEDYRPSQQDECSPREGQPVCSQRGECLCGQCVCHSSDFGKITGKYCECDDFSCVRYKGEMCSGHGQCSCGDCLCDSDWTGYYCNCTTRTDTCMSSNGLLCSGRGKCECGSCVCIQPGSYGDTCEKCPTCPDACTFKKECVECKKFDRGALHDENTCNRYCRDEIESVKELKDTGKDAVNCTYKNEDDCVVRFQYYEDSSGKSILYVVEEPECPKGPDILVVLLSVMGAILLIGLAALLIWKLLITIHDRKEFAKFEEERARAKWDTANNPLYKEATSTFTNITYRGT
molecule,measurement,setting,value
"COc1cccc2c1C(=O)c1c(O)c3c(c(O)c1C2=O)C[C@@](O)(C(=O)CO)C[C@@H]3O[C@H]1C[C@H](N)[C@H](O)[C@H](C)O1 [free doxorubicin, doxorubicin, reference compound]",Cellular uptake and intracellular distribution,M21 cells,Red doxorubicin fluorescence can be detected
same,IC50,αv-negative M21L cells; read-out: IC-50 M21L,0.0707 ± 0.0008 µg/mL
same,IC50,"[1]; Homo sapiens, M21, read-out: IC-50 M21",0.0575 ± 0.0037 µg/mL
same,Cell death [h after incubation],[2],17 h
NP-Dox-DI17E6,Zetapotential,[3],−40.3 ± 3.1 mV
same,Cellular binding to M21 cells,[4],high binding
same,Cellular binding to M21L cells,[5],low binding
same,Cellular uptake and intracellular distribution,M21 cells,reaches the inner part of the cells
same,Particle diameter,[6],404.9 ± 27.0 nm
same,Polydispersity,[6],0.040 ± 0.045
same,IC-50 M21L,αv-negative M21L cells,>100 ng/mL
same,IC-50 M21,[1],8.0 ± 0.2 ng/mL
same,Cell detachment from vitronectin coated surfaces,[7],same detachment efficiency
same,Particle content,[8],14.4 ± 1.2 mg/mL
same,Drug loading,[9],56.7 ± 2.9 µg/mg
same,Covalent linkage of antibody to the particle surface,[10]; covalent linkage,11-20 μg antibody/mg nanoparticle
same,Antibody binding efficiency,"[10]; mean ± SD, n = 3, antibody per mg nanoparticle",15.84 ± 4.07 µg/mg
NP-Dox-DI17E6 (doxorubicin-loaded HSA nanoparticles with DI17E6 covalently coupled on the surface),IC-50 of MTT cell viability assay on M21 cells (referred to doxorubicin),[11],8 ng/mL
"free DI17E6: deimmunized version of monoclonal mouse antibody 17E6, directed against αv integrins (SEQ ID No. 1 and 2)",IC-50 M21L,αv-negative M21L cells,>100 ng/mL
same,IC-50 M21,[1],>100 ng/mL
same,Cell detachment from vitronectin coated surfaces,[7],cell detachment of αvβ3 positive melanoma cells M21 from vitronectin coated surfaces is also possible
same,Inhibition of cell attachment to vitronectin coated surfaces,[12],inhibits the attachment of the M21 cells to vitronectin coated surfaces
